Measured values from PubChem BioAssay (NCI).
“And” between values parts separate entries of the source, which are not always exact repeats. Equal values may be shown once.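 Method: 48-hour compound exposure of cells in 96-well plates, five concentrations, linear interpolation of endpoints. Abbreviation: GI50, concentration required for 50% inhibition of growth. TGI: total growth inhibition.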

Columns and labels:
Assay in all cases: NCI-60 cell line screen, 48 h
RPMI-8226 leukemia = tested on: RPMI-8226 leukemia
NCI-H522 lung = tested on: NCI-H522 lung
SF-295 CNS = tested on: SF-295 CNS
MALME-3M melanoma = tested on: MALME-3M melanoma
NCI-H460 lung = tested on: NCI-H460 lung
U251 CNS = tested on: U251 CNS
MDA-MB-231 breast = tested on: MDA-MB-231 breast
NCI-H23 lung = tested on: NCI-H23 lung
786-0 renal = tested on: 786-0 renal
RXF 393 renal = tested on: RXF 393 renal

SMILES	GI50 (RPMI-8226 leukemia) [µM]	TGI (RPMI-8226 leukemia)	GI50 (NCI-H522 lung) [µM]	TGI (NCI-H522 lung)	GI50 (SF-295 CNS)	TGI (SF-295 CNS)	GI50 (MALME-3M melanoma) [µM]	TGI (MALME-3M melanoma)	GI50 (NCI-H460 lung) [µM]	TGI (NCI-H460 lung)	GI50 (U251 CNS)	TGI (U251 CNS) [µM]	GI50 (MDA-MB-231 breast) [µM]	TGI (MDA-MB-231 breast)	GI50 (NCI-H23 lung) [µM]	TGI (NCI-H23 lung)	GI50 (786-0 renal) [µM]	TGI (786-0 renal)	TGI (RXF 393 renal)	GI50 (RXF 393 renal) [µM]
O=c1cc(N2CCOCC2)oc2c(-c3ccccc3)cccc12	5.1	> 100 µM and 18.3 µM	4.96	23.2 µM and 19.3 µM	2.61 µM	27.8 µM and 44.7 µM	4.46	> 41.4 µM and 5.6 µM	6.13	> 100 µM	11.1 µM	> 100	5.85	97.3 µM and 19.6 µM	9.08	> 100 µM	3.13	> 37.9 µM and 46.7 µM	13.4 µM and 13.6 µM	
Nc1ncnc2c1ncn2C1OC(CO)C(O)C1O (configuration not stated)		> 100 µM and > 450 µM and 60.8 µM		> 295 µM	> 100 µM and 215 µM and 32.6 µM	> 450 µM	51.3	> 422 µM	4.23	181 µM and 32.2 µM	> 100 µM and 273 µM and 30.6 µM	> 450	5.91	> 100 µM and 24.6 µM		> 100 µM and > 450 µM and 77.3 µM	9.22	> 100 µM	> 100 µM and 290 µM and 64.1 µM	22.5
C=C1c2c(C)nn(-c3ccccc3)c2N(C)C23C[C@@H]1C1(C)c4c(C)nn(-c5ccccc5)c4N(C)C(C)(C[C@H]12)C3 (some centres not stated)			2.12	7.73 µM			4.19	93.5 µM	3.35	> 100 µM	4.44 µM	31.6	4.55	39.6 µM	7.99	> 100 µM	11.8	69.4 µM	6.39 µM	2.04
Cc1cc(C)c2nc(Nc3nc(C)c(C)c(=O)[nH]3)nc(C)c2c1	2.13	6.21 µM	1.63	6.33 µM	2.29 µM	6.44 µM	1.61	7.48 µM	2.99	11.1 µM	3.18 µM	12	2.99	12.7 µM	3.44	20.4 µM	2.4	12.3 µM	7.55 µM	2.39
CC(C)=CCNc1ncnc2c1ncn2C1OC(COP(=O)(O)O)C(O)C1O (configuration not stated)	42.8	> 100 µM	4.8	89.4 µM	5.8 µM	34 µM	73.8	> 100 µM	7.24	> 100 µM	> 100 µM	> 100	1.85	5.48 µM	6.68	> 100 µM	5.82	> 79.6 µM	8.98 µM	2.38
N#CC1=C(N)Oc2c(sc3c(F)cccc23)C1c1ccc(Cl)cc1 (configuration not stated)	2.91	12.8 µM	1.93	11.7 µM	2.74 µM	9.5 µM	6.85	26.3 µM	3.38	11.8 µM	3.13 µM	11.6	3.46	16.2 µM	3.37	16.2 µM	3.15	11.1 µM	6 µM	1.92
